# Measurements taken from BigSolDB 2.1.
Compound,"solubility (mole fraction) (in acetic acid, 288.15 K)","solubility (mole fraction) (in acetic acid, 293.15 K)","solubility (mole fraction) (in acetic acid, 298.15 K)","solubility (mole fraction) (in acetic acid, 303.15 K)","solubility (mole fraction) (in acetic acid, 308.15 K)","solubility (mole fraction) (in acetic acid, 315.15 K)","solubility (mole fraction) (in acetic acid, 318.15 K)","solubility (mole fraction) (in acetic acid, 323.15 K)","solubility (mole fraction) (in acetone, 288.15 K)","solubility (mole fraction) (in acetone, 293.15 K)","solubility (mole fraction) (in acetone, 298.15 K)","solubility (mole fraction) (in acetone, 303.15 K)","solubility (mole fraction) (in acetone, 308.15 K)","solubility (mole fraction) (in acetone, 315.15 K)","solubility (mole fraction) (in acetone, 318.15 K)","solubility (mole fraction) (in acetone, 323.15 K)","solubility (mole fraction) (in ethanol, 288.15 K)","solubility (mole fraction) (in ethanol, 293.15 K)","solubility (mole fraction) (in ethanol, 298.15 K)","solubility (mole fraction) (in ethanol, 303.15 K)",other results
O=C(O)CCCCCC(=O)O,0.0648,0.0794,0.0964,0.119,0.14,0.169,0.199,0.232,0.0546,0.0752,0.118,0.146,0.174,0.202,0.224,0.246,0.0677,0.0851,0.104,0.126,"solubility (mole fraction) (in ethanol, 308.15 K): 0.15; solubility (mole fraction) (in ethanol, 315.15 K): 0.178; solubility (mole fraction) (in ethanol, 318.15 K): 0.204; solubility (mole fraction) (in ethanol, 323.15 K): 0.237; solubility (mole fraction) (in ethyl acetate, 288.15 K): 0.0233; solubility (mole fraction) (in ethyl acetate, 293.15 K): 0.0321; solubility (mole fraction) (in ethyl acetate, 298.15 K): 0.0517; solubility (mole fraction) (in ethyl acetate, 303.15 K): 0.0718; solubility (mole fraction) (in ethyl acetate, 308.15 K): 0.0802; solubility (mole fraction) (in ethyl acetate, 315.15 K): 0.0904; solubility (mole fraction) (in ethyl acetate, 318.15 K): 0.102; solubility (mole fraction) (in ethyl acetate, 323.15 K): 0.128"
O=C(O)CCCC(=O)O,0.173,0.196,0.221,0.241,0.276,0.31,0.341,0.385,0.183,0.207,0.237,0.264,0.329,0.324,0.375,0.417,0.136,0.158,0.176,0.201,"solubility (mole fraction) (in ethanol, 308.15 K): 0.228; solubility (mole fraction) (in ethanol, 315.15 K): 0.274; solubility (mole fraction) (in ethanol, 318.15 K): 0.322; solubility (mole fraction) (in ethanol, 323.15 K): 0.35; solubility (mole fraction) (in ethyl acetate, 288.15 K): 0.0861; solubility (mole fraction) (in ethyl acetate, 293.15 K): 0.105; solubility (mole fraction) (in ethyl acetate, 298.15 K): 0.123; solubility (mole fraction) (in ethyl acetate, 303.15 K): 0.133; solubility (mole fraction) (in ethyl acetate, 308.15 K): 0.146; solubility (mole fraction) (in ethyl acetate, 315.15 K): 0.176; solubility (mole fraction) (in ethyl acetate, 318.15 K): 0.227; solubility (mole fraction) (in ethyl acetate, 323.15 K): 0.307"
O=C(O)CCCCCCCC(=O)O,0.0333,0.04,0.0524,0.0631,0.0761,0.0923,0.111,0.133,0.029,0.0331,0.04,0.0494,0.0634,0.0806,0.103,0.143,0.0534,0.0601,0.0707,0.0851,"solubility (mole fraction) (in ethanol, 308.15 K): 0.102; solubility (mole fraction) (in ethanol, 315.15 K): 0.124; solubility (mole fraction) (in ethanol, 318.15 K): 0.15; solubility (mole fraction) (in ethanol, 323.15 K): 0.185; solubility (mole fraction) (in ethyl acetate, 288.15 K): 0.00911; solubility (mole fraction) (in ethyl acetate, 293.15 K): 0.0113; solubility (mole fraction) (in ethyl acetate, 298.15 K): 0.0162; solubility (mole fraction) (in ethyl acetate, 303.15 K): 0.0232; solubility (mole fraction) (in ethyl acetate, 308.15 K): 0.0326; solubility (mole fraction) (in ethyl acetate, 315.15 K): 0.0524; solubility (mole fraction) (in ethyl acetate, 318.15 K): 0.0663; solubility (mole fraction) (in ethyl acetate, 323.15 K): 0.0964"
O=C(O)CCCCCCC(=O)O,0.0115,0.0145,0.0176,0.0216,0.0264,0.0329,0.0405,0.0501,0.0092,0.0127,0.0167,0.021,0.025,0.0301,0.0356,0.0405,0.0208,0.0253,0.031,0.0375,"solubility (mole fraction) (in ethanol, 308.15 K): 0.0454; solubility (mole fraction) (in ethanol, 315.15 K): 0.0553; solubility (mole fraction) (in ethanol, 318.15 K): 0.0683; solubility (mole fraction) (in ethanol, 323.15 K): 0.0847; solubility (mole fraction) (in ethyl acetate, 288.15 K): 0.00238; solubility (mole fraction) (in ethyl acetate, 293.15 K): 0.00302; solubility (mole fraction) (in ethyl acetate, 298.15 K): 0.00389; solubility (mole fraction) (in ethyl acetate, 303.15 K): 0.00513; solubility (mole fraction) (in ethyl acetate, 308.15 K): 0.00641; solubility (mole fraction) (in ethyl acetate, 315.15 K): 0.00819; solubility (mole fraction) (in ethyl acetate, 318.15 K): 0.00978; solubility (mole fraction) (in ethyl acetate, 323.15 K): 0.0118"
